What was measured:
A549 = test: Antiproliferative activity against human A549 cells assessed as inhibition of cell growth incubated for 72 hrs by Cell Titer Glo luminescent cell viability assay; type: functional, cell-based; settings: A549, 72 h
A-431 = test: Antiproliferative activity against human A431 cells assessed as inhibition of cell growth incubated for 72 hrs by Cell Titer Glo luminescent cell viability assay; type: functional, cell-based; settings: A-431, 72 h
[1] = Apparent permeability from apical to basolateral side in human Caco2 cells at 10 uM measured for 120 mins by LC-MS/MS analysis; settings: Caco-2
[2] = Metabolic stability in pooled human liver microsomes assessed as half life at 3 uM measured up to 45 mins in presence of NADPH by LC-MS/MS analysis; type: ADME, Microsome; settings: pooled liver microsomes
[3] = Protein binding in plasma (unknown origin) assessed as unbound fraction at 5 uM by LC-MS/MS based equilibrium dialysis analysis
[4] = biological target: Voltage-gated inwardly rectifying potassium channel KCNH2 (Homo sapiens, UniProt Q12809); test: Inhibition of human ERG expressed in CHO cells at -80 mV holding potential by IonWorks patch-clamp electrophysiology assay
[5] = Apparent permeability from basolateral to apical side in human Caco2 cells at 10 uM measured for 120 mins by LC-MS/MS analysis; settings: Caco-2
[6] = Metabolic stability in pooled human liver microsomes assessed as Clearance at 3 uM measured up to 45 mins in presence of NADPH by LC-MS/MS analysis; type: ADME, Microsome; settings: pooled liver microsomes, read-out: CLH
[7] = biological target: Inhibitor of nuclear factor kappa-B kinase subunit beta (Homo sapiens) (UniProt O14920); test: Inhibition of recombinant human full-length GST-tagged IKBKB expressed in baculovirus expression system at 500 nM using Ser/Thr 05 as substrate incubated for 1 hr in presence of ATP at its Km concentration by Z'-LYTE assay relative to control
[8] = biological target: MAP kinase-activated protein kinase 2 (Homo sapiens) (UniProt P49137); test: Inhibition of recombinant human His-tagged full length MAPKAPK2 expressed in Escherichia coli expression system at 500 nM using Ser/Thr 04 as substrate incubated for 1 hr in presence of ATP at its Km concentration by Z'-LYTE assay relative to control
MAP kinase-activated protein kinase 2 (Homo sapiens), sequence (P49137 whole entry, looked up): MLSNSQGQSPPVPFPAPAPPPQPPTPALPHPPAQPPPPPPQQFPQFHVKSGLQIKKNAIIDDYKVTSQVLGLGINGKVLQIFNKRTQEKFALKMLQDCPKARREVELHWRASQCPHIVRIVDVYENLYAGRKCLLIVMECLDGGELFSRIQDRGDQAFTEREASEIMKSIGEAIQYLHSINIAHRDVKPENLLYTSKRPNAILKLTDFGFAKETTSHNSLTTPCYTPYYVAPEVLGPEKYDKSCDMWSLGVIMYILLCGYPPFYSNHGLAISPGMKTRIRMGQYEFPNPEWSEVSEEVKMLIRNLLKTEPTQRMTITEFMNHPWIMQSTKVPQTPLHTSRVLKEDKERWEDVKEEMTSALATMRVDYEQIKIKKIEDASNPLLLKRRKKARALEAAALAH

Voltage-gated inwardly rectifying potassium channel KCNH2, sequence (Q12809 whole entry): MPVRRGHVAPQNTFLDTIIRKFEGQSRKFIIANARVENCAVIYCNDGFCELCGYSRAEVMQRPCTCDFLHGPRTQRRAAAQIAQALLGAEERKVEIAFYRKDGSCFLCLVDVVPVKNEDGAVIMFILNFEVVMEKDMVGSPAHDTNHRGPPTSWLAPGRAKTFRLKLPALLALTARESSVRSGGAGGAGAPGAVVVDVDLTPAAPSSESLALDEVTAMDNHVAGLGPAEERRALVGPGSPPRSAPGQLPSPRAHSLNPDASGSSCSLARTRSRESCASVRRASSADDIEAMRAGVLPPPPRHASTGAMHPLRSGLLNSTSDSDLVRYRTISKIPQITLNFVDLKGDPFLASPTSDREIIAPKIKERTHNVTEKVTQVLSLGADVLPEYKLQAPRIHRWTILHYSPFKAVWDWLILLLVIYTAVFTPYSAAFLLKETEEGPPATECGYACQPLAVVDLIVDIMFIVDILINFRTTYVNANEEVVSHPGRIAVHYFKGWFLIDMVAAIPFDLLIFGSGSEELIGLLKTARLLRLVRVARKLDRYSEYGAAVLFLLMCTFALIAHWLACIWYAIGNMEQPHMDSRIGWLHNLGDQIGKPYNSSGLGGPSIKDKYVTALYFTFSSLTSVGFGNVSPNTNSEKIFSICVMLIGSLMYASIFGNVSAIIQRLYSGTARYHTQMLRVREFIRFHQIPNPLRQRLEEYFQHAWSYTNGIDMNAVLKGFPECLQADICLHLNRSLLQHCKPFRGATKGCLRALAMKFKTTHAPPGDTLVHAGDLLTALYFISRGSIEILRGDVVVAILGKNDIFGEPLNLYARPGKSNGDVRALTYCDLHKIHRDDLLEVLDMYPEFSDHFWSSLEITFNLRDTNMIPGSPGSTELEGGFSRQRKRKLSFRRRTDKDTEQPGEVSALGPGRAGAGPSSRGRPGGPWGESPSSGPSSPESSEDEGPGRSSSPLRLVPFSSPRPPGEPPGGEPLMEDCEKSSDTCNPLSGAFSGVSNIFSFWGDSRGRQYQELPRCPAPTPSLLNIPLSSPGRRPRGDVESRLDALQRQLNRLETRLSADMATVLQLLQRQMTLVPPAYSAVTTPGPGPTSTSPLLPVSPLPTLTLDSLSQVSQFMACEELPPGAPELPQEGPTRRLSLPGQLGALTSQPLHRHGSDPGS
Inhibitor of nuclear factor kappa-B kinase subunit beta (Homo sapiens), sequence (O14920 whole entry): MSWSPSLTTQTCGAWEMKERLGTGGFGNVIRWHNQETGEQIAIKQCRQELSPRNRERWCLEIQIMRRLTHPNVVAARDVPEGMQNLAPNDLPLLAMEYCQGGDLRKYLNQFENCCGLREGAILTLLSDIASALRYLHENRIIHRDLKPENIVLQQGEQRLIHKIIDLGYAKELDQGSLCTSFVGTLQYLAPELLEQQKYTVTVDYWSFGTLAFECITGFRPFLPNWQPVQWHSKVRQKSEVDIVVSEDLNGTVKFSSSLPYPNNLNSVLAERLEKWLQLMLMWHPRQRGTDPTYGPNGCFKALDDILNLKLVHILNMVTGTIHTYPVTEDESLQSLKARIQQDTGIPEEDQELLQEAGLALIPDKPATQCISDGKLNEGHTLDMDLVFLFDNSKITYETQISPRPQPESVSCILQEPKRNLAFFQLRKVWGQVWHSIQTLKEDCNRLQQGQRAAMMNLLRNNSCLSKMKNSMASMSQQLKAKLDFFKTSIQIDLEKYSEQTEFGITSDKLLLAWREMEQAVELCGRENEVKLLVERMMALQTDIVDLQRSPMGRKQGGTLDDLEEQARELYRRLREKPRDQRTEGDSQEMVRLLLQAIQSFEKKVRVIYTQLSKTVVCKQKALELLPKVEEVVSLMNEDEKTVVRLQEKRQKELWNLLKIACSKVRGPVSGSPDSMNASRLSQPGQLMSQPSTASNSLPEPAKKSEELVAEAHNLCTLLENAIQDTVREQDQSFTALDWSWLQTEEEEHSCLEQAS

Row | IC50 (A549) [µM] | IC50 (A-431) [µM] | Papp A→B at 2 h, 10 µM [1] [×10⁻⁶ cm/s] | half-life at 3 µM [2] [min] | fraction unbound at 5 µM [3] | Papp B→A at 2 h, 10 µM [5] [×10⁻⁶ cm/s] | microsomal CLint at 3 µM [6] [µL/min/mg] | inhibition [7] [%] | inhibition [8] [%] | Structure (SMILES) | IC50 [4] [µM]
1 | > 100 |  |  |  |  |  |  |  |  | OC[C@@H](Nc1ncnc2[nH]c(-c3ccccc3)cc12)c1ccccc1 | 
2 |  | 0.4 |  |  |  |  |  |  |  | COc1ccccc1-c1cc2c(N[C@H](CO)c3ccccc3)ncnc2[nH]1 | 
3 | > 100 |  | 38.8 | 31.7 | 0.117 | 31 | 43.8 | -5 | -1 | C#Cc1cccc(Nc2ncnc3cc(OCCOC)c(OCCOC)cc23)c1 [ERLOTINIB] | > 25

Source: ChEMBL document CHEMBL4715760, “Balancing potency, metabolic stability and permeability in pyrrolopyrimidine-based EGFR inhibitors” (Eur J Med Chem, 2016)
